This note sets out measurements from ChEMBL document CHEMBL1806354 (J Med Chem, 2011).

Holding throughout (type): cell-based
Experiment [1] has as its target T1, D(1A) dopamine receptor (Homo sapiens, UniProt P21728). The experiment is described as follows: Displacement of [3H]SCH23390 from dopamine D1 receptor expressed in HEK293 cells after 50 mins by beta liquid scintillation counter. Background: In a radioligand displacement assay an active substance lowers the binding of a labelled ligand.
Experiment [2] addresses T2, 5-hydroxytryptamine receptor 2A (Homo sapiens, UniProt P28223). The experiment is described as follows: Displacement of [3H]ketanserin from 5-HT2A receptor expressed in CHO cells at 10 uM after 50 mins by beta liquid scintillation counter.
The target in experiment [3] is T3, 5-hydroxytryptamine receptor 1A (Homo sapiens, UniProt P08908).
T3 sequence (P08908 whole entry): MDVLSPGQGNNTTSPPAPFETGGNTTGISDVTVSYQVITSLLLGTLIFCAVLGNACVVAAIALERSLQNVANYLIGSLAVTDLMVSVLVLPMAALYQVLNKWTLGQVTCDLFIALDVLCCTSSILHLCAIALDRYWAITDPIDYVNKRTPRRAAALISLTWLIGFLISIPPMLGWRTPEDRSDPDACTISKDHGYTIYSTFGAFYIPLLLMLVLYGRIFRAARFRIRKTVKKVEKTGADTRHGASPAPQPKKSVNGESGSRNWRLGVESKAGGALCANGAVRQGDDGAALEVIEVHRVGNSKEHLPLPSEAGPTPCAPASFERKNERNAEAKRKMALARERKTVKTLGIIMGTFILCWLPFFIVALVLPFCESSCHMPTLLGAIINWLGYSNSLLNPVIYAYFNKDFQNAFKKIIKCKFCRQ
Briefly: Displacement of [3H]-8-OH-DPAT from 5-HT1A receptor expressed in CHO cells after 50 mins by beta liquid scintillation counter.

The target in experiment [4] is T4, D(2) dopamine receptor (Homo sapiens, UniProt P14416). Briefly: Displacement of [3H]spiperone from dopamine D2 receptor expressed in HEK293 cells after 50 mins by beta liquid scintillation counter.
Experiment [5] deals with T1, D(1A) dopamine receptor. Briefly: Displacement of [3H]SCH23390 from dopamine D1 receptor expressed in HEK293 cells at 10 uM after 50 mins by beta liquid scintillation counter.
Experiment [6] has as its target T4, D(2) dopamine receptor. Briefly: Displacement of [3H]spiperone from dopamine D2 receptor expressed in HEK293 cells at 10 uM after 50 mins by beta liquid scintillation counter.
In experiment [7] the target is T2, 5-hydroxytryptamine receptor 2A. Briefly: Displacement of [3H]ketanserin from 5-HT2A receptor expressed in CHO cells after 50 mins by beta liquid scintillation counter.

T4 sequence (P14416 whole entry): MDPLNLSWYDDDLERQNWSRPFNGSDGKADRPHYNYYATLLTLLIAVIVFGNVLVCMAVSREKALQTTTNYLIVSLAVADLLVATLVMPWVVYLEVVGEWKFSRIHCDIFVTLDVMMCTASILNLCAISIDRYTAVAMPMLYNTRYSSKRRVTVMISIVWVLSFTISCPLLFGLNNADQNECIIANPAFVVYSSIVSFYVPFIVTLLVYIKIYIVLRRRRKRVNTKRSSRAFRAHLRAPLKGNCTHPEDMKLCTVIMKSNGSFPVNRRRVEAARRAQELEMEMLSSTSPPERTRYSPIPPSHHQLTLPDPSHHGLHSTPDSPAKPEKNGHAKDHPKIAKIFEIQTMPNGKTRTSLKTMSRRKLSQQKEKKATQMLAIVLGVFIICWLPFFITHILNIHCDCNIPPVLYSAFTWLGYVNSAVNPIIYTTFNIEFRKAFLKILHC
T2 sequence (P28223 whole entry): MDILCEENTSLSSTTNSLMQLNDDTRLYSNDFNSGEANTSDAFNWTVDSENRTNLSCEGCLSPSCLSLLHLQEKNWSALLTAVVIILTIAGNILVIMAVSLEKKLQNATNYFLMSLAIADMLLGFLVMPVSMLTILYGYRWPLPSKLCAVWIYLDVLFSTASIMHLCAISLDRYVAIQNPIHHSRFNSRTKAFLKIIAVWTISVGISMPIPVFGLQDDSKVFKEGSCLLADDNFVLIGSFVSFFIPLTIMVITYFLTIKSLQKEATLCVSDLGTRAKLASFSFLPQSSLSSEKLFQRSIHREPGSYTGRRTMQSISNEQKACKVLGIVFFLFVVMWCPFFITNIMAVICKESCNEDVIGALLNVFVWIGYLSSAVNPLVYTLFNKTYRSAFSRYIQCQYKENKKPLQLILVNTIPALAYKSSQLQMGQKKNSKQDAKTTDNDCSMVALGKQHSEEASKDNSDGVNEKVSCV
T1 sequence (P21728 whole entry): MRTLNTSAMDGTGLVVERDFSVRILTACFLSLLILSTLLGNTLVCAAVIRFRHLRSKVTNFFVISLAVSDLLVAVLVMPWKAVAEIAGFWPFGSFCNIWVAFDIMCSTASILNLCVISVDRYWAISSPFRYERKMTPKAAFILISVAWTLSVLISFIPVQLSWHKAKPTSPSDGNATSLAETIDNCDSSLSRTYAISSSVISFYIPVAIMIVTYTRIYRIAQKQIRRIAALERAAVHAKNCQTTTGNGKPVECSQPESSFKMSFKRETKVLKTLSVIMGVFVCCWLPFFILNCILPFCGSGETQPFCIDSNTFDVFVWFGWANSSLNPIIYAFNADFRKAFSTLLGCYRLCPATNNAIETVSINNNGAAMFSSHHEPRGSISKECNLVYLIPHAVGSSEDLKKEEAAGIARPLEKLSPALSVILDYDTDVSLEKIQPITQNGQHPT

Turning to `CCCN1CCc2cccc3c2[C@H]1Cc1cccc(OC(=O)NCc2ccccc2)c1-3`, the figures for the Ki in experiment [1], in experiment [3] and in experiment [4] were 2.4 µM, 0.09 µM and 2.2 µM, respectively. Moreover, the inhibition in experiment [2] was determined as 76.6%.

`CCCN1CCc2cccc3c2[C@H]1Cc1cccc(O)c1-3`: the inhibition in experiment [5] worked out at 63.2%; in experiment [2], 63%.

Regarding `CCCCNC(=O)Oc1cccc2c1-c1cccc3c1[C@@H](C2)N(CCC)CC3`, the inhibition was 53.6% in experiment [5], 40.9% in experiment [6] and 34.9% in experiment [2]. In addition, the affinity in experiment [3] corresponds to a Ki of 0.089 µM.

In the case of `CCCN1CCc2cccc3c2C1Cc1cccc(OC(=O)Nc2cccc4ccccc24)c1-3` (stereo not given), the figures for the inhibition in experiment [5] and in experiment [2] were 48% and 21.7%, respectively. Also, the Ki in experiment [3] turned out to be 0.124 µM; in experiment [4], 2 µM.

As to `CCCN1CCc2cccc3c2C1Cc1cccc(OC(=O)NCc2ccccc2)c1-3` (racemic), the Ki in experiment [1] turned out to be 4.2 µM; in experiment [7] it was 2 µM; in experiment [3] it was 0.259 µM; in experiment [4] it was 4.3 µM.

Turning to `CCCC(=O)Oc1cccc2c1-c1cccc3c1[C@@H](C2)N(CCC)CC3`, the inhibition in experiment [5] is 63.2%; in experiment [2], 68%. The figures for the Ki in experiment [3] and in experiment [4] were 0.0119 µM and 0.0555 µM, respectively.

For `CCCC(=O)Nc1cccc2c1-c1cccc3c1[C@@H](C2)N(CCC)CC3`, the inhibition was 16.1% in experiment [5], 13.5% in experiment [6] and 16.6% in experiment [2]. In experiment [3], the affinity corresponds to a Ki of 0.38 µM.

With `CCCCNC(=O)Oc1cccc2c1-c1cccc3c1C(C2)N(CCC)CC3` (racemic), the inhibition in experiment [5] stood at 36.5%; in experiment [6] it was 53.2%; in experiment [2] it was 37.4%. This molecule also gave an inhibitory constant (Ki) in experiment [3] of 0.385 µM.

For `CCCN1CCc2cccc3c2C1Cc1cccc(CNC(=O)NCC)c1-3` (racemic), the inhibition in experiment [5] stood at 35.4%; in experiment [6], 15.7%.

Consider `CCCN1CCc2cccc3c2[C@H]1Cc1cccc(N)c1-3`, for which the inhibition in experiment [5] was determined as 57.1%; in experiment [2], 49.4%. In addition, the inhibition constant (Ki) stood at 0.276 µM in experiment [3] and 0.352 µM in experiment [4].

As for `CCCN1CCc2cccc3c2[C@H]1Cc1cccc(OC(=O)CCCC[C@H]2CCSS2)c1-3`, the inhibition in experiment [5] was found to be 64.8%. The Ki worked out at 0.035 µM in experiment [3] and 0.342 µM in experiment [4].

In experiment [5], `CCCN1CCc2cccc3c2[C@H]1Cc1cccc(OC(=O)CCCC[C@@H]2CCSS2)c1-3` yielded an inhibition of 69.6%. Also, the inhibitory constant (Ki) in experiment [3] amounted to 0.045 µM; in experiment [4], 0.296 µM.

As for `CCCN1CCc2cccc3c2C1Cc1cccc(-c2noc(CCCCC4CCSS4)n2)c1-3` (racemic), the inhibition in experiment [5] was 57%; in experiment [6] it was 19.5%.

For `CCCNC(=O)Oc1cccc2c1-c1cccc3c1[C@@H](C2)N(CCC)CC3`, the inhibition in experiment [5] stood at 56.3%; in experiment [6], 50.9%; in experiment [2], 16%. Besides, in experiment [3], the Ki came to 0.087 µM.

Consider `CCCN1CCc2cccc3c2[C@H]1Cc1cccc(OC(=O)NC(C)(C)C)c1-3`, for which the inhibition stood at 70.2% in experiment [5] and 29.2% in experiment [2]. Further, the values for the Ki in experiment [3] and in experiment [4] were 0.096 µM and 0.871 µM, respectively.

Regarding `CCCN1CCc2cccc3c2[C@H]1Cc1cccc(NC(=O)CCCCC2CCSS2)c1-3` (stereo not given in full), the figures for the inhibition in experiment [5], in experiment [6] and in experiment [2] were 27.2%, 33.1% and 36.9%, respectively. The molecule further came in with a Ki in experiment [3] of 0.249 µM.

For the molecule `CCCN1CCc2cccc3c2C1Cc1cccc(OC(=O)CCCCC2CCSS2)c1-3` (racemic), the results for the inhibition in experiment [5], in experiment [6] and in experiment [2] were 62.7%, 55.2% and 14.7%, respectively. Also, the affinity in experiment [3] corresponds to a Ki of 0.137 µM.

Regarding `CCCN1CCc2cccc3c2C1Cc1cccc(OC(=O)NC(C)(C)C)c1-3` (racemic), the inhibition was found to be 44.2% in experiment [5] and 20% in experiment [2]. In addition, the inhibitory constant (Ki) came out at 0.217 µM in experiment [3] and 2.8 µM in experiment [4].

Turning to `CCCN1CCc2cccc3c2C1Cc1cccc(CNC(=O)CCCCC2CCSS2)c1-3` (racemic), the inhibition in experiment [5] turned out to be 32.4%; in experiment [6], 9.6%.

In the case of `CCCN1CCc2cccc3c2C1Cc1cccc(CNC(=S)CCCCC2CCSS2)c1-3` (racemic), the figures for the inhibition in experiment [5] and in experiment [6] were 11.4% and 3.1%, respectively.

As for `CCCNC(=O)Oc1cccc2c1-c1cccc3c1C(C2)N(CCC)CC3` (racemic), the results for the inhibition in experiment [5], in experiment [6] and in experiment [2] were 26.2%, 52.7% and 30.1%, respectively. Further, the affinity in experiment [3] corresponds to a Ki of 0.258 µM.

As to `CCCN1CCc2cccc3c2C1Cc1cccc(O)c1-3` (racemic), the inhibition was 55.9% in experiment [5] and 14.1% in experiment [2]. In addition, the Ki in experiment [3] was 0.066 µM.

As for `CCCN1CCc2cccc3c2[C@H]1Cc1cccc(OC(=O)NCC)c1-3`, the values for the inhibition in experiment [5], in experiment [6] and in experiment [2] were 54.6%, 44.3% and 14.5%, respectively. The Ki in experiment [3] was determined as 0.094 µM.

`CCCN1CCc2cccc3c2C1Cc1cccc(OC(=O)NCC)c1-3` (racemic): the inhibition in experiment [5] was 46.1%; in experiment [6], 56.7%; in experiment [2] it was 19.8%. For the same molecule, the Ki in experiment [3] is 0.218 µM.

For `CCCN1CCc2cccc3c2C1Cc1cccc(OC(=O)CSc2ccccc2)c1-3` (racemic), the inhibition in experiment [5] was determined as 67.1%. In addition, the affinity in experiment [4] corresponds to a Ki of 0.851 µM.

Usually Ki stands for a measure of affinity in units of concentration, obtained from inhibition or displacement. The low end stands for a stronger hold on the target, the high end for a looser hold on the target. Usually inhibition stands for the percentage by which the read-out fell short of the control. Low readings indicate a weak effect, high ones a strong effect.
